According to PubChem BioAssay (NCI):
Several values for one entry are separate records, joined by “and”; a condition that tells them apart may be missing. Equal entries are not always repeated.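 Values below derive from 48-hour exposures of cells grown in 96-well plates, with endpoints linearly interpolated between the two concentrations bracketing the appropriate inhibition level. Abbreviation: GI50, concentration required for 50% inhibition of growth. TGI marks complete inhibition of growth.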

Columns and labels:
Experiment in all cases: inhibition of tumour cell growth, NCI panel, 48 h; in the data active = GI50 below about 0.43 µM; inactive = the rest
[1] = tested on: OVCAR-4 ovarian
[2] = tested on: HOP-92 NSCLC
[3] = tested on: HCT-116 colon
[4] = tested on: HL-60(TB) leukemia
[5] = tested on: SF-539 CNS
[6] = tested on: OVCAR-8 ovarian
[7] = tested on: UACC-62 melanoma
[8] = tested on: PC-3 prostate
[9] = tested on: HS 578T breast
[10] = tested on: ACHN renal
[11] = tested on: K-562 leukemia
[12] = tested on: RPMI-8226 leukemia
[13] = tested on: SK-MEL-5 melanoma
[14] = tested on: OVCAR-5 ovarian
[15] = tested on: M14 melanoma
[16] = tested on: 786-0 renal
[17] = tested on: SNB-19 CNS
[18] = tested on: DU-145 prostate
[19] = tested on: SN12C renal
[20] = tested on: NCI/ADR-RES ovarian
[21] = tested on: SK-OV-3 ovarian
[22] = tested on: IGROV1 ovarian
[23] = tested on: HT29 colon
[24] = tested on: HCC-2998 colon
[25] = tested on: TK-10 renal
[26] = tested on: SK-MEL-28 melanoma
[27] = tested on: SNB-75 CNS
[28] = tested on: T-47D breast
[29] = tested on: NCI-H226 lung
[30] = tested on: U251 CNS
[31] = tested on: RXF 393 renal
[32] = tested on: HCT-15 colon
[33] = tested on: MOLT-4 leukemia
[34] = tested on: A549 NSCLC
[35] = tested on: MCF7 breast
[36] = tested on: EKVX NSCLC
[37] = tested on: KM12 colon
[38] = tested on: SK-MEL-2 melanoma
[39] = tested on: SW-620 colon
[40] = tested on: COLO 205 colon
[41] = tested on: HOP-62 NSCLC
[42] = tested on: UACC-257 melanoma
[43] = tested on: SR leukemia
[44] = tested on: NCI-H460 lung
[45] = tested on: MDA-MB-231 breast
[46] = tested on: MALME-3M melanoma
[47] = tested on: CCRF-CEM leukemia
[48] = tested on: UO-31 renal
[49] = tested on: NCI-H23 lung
[50] = tested on: NCI-H522 lung
[51] = tested on: SF-268 CNS
[52] = tested on: CAKI-1 renal
[53] = tested on: LOX IMVI melanoma
[54] = tested on: BT-549 breast
[55] = tested on: MDA-MB-435
[56] = tested on: A498 renal
[57] = tested on: OVCAR-3 ovarian
[58] = tested on: SF-295 CNS

Cc1nnc2sc(Cc3cnc(N)s3)nn12
> 100 µM: TGI [1] | TGI [2] | TGI [3] | TGI [4] | TGI [5] | TGI [6] | TGI [7] | TGI [8] | TGI [9] | TGI [10] | TGI [11] | TGI [12] | TGI [13] | TGI [14] | TGI [15] | TGI [16] | TGI [17] | TGI [18] | TGI [19] | TGI [20] | TGI [21] | TGI [22] | TGI [23] | TGI [24] | TGI [25] | TGI [26] | TGI [27] | TGI [28] | TGI [29] | TGI [30] | TGI [31] | TGI [32] | TGI [33] | TGI [34] | TGI [35] | TGI [36] | TGI [37] | TGI [38] | TGI [39] | TGI [40] | TGI [41] | TGI [42] | TGI [43] | TGI [44] | TGI [45] | TGI [46] | TGI [47] | TGI [48] | TGI [49] | TGI [50] | TGI [51]

COc1cccc(-c2cc(=O)c3cc(NC(C)=O)ccc3[nH]2)c1
17.1 µM: TGI [55]
96.2 µM: TGI [12]
> 100 µM: TGI [1] | TGI [2] | TGI [6] | TGI [7] | TGI [8] | TGI [10] | TGI [52] | TGI [14] | TGI [53] | TGI [15] | TGI [16] | TGI [17] | TGI [19] | TGI [20] | TGI [21] | TGI [22] | TGI [23] | TGI [24] | TGI [54] | TGI [25] | TGI [26] | TGI [30] | TGI [32] | TGI [33] | TGI [34] | TGI [35] | TGI [36] | TGI [37] | TGI [39] | TGI [40] | TGI [41] | TGI [42] | TGI [44] | TGI [45] | TGI [46] | TGI [48] | TGI [49] | TGI [50] | TGI [51]
9.27 µM: TGI [47]
56 µM: TGI [13]
61 µM: TGI [56]
8.35 µM: TGI [9]
inactive: GI50 [1] 19.6 µM
6 µM: TGI [43]
44.7 µM: TGI [5]

Cc1ccnc2[nH]c(-c3cccc4ccccc34)cc(=O)c12
0.000495 µM: TGI [55]
28 µM: TGI [35]
40.2 µM: TGI [26]
17.1 µM: TGI [53]
63.9 µM: TGI [11]
6.8 µM: TGI [45]
50 µM: TGI [22]
53.8 µM: TGI [48]
> 100 µM: TGI [1] | TGI [10] | TGI [52] | TGI [14] | TGI [15] | TGI [16] | TGI [17] | TGI [18] | TGI [19] | TGI [25] | TGI [31] | TGI [32] | TGI [33] | TGI [34] | TGI [39] | TGI [58] | TGI [41] | TGI [42] | TGI [44] | TGI [47] | TGI [49] | TGI [51]
14.2 µM: TGI [3]
16 µM: TGI [6]
3.85 µM: TGI [37]
0.0992 µM and 0.205 µM: TGI [40]
active: GI50 [6] 0.0169 µM | GI50 [8] 0.0199 µM | GI50 [9] 0.0173 µM | GI50 [10] 0.039 µM | GI50 [14] 0.0813 µM | GI50 [15] 0.0132 µM | GI50 [18] 0.0284 µM | GI50 [22] 0.0585 µM | GI50 [24] 0.101 µM | GI50 [32] 0.0152 µM | GI50 [34] 0.0132 µM | GI50 [35] 0.0431 µM | GI50 [36] 0.0151 µM | GI50 [58] 0.0107 µM | GI50 [40] 0.015 µM | GI50 [45] 0.0656 µM | GI50 [48] 0.0368 µM | GI50 [49] 0.0315 µM
72 µM: TGI [54]
0.363 µM and 0.707 µM: TGI [24]
26.5 µM: TGI [7]
0.0785 µM and 0.0628 µM: TGI [23]
34.8 µM: TGI [43]
33.9 µM: TGI [29]
0.00697 µM: TGI [4]
92.7 µM: TGI [9]
inactive: GI50 [1] 17.6 µM | GI50 [19] 0.678 µM | GI50 [25] 25.8 µM | GI50 [41] 7.39 µM | GI50 [51] 15.8 µM
28.6 µM: TGI [12]
0.00758 µM and 0.0471 µM: TGI [50]
0.0115 µM: TGI [57]
34.6 µM: TGI [36]
0.0681 µM: TGI [56]
0.0474 µM: TGI [46]
